{"source": "patent US20220340899A1", "about": "“STEREOSELECTIVE PH RESPONSIVE PEPTIDE DENDRIMERS FOR NUCLEIC ACID TRANSFECTION” (UNIVERSITÄT BERN, priority 2019, published 2022)", "key": {"cells": {"system": "cells", "assay": "Cell viability by AlamarBlue assay after transfection", "type": "cell-based", "details": "in transfection experiments", "procedure": "Cell Viability by AlamarBlue® Assay: Cells were transfected in TPP 96-well plates as previously described. Following transfections, the medium was removed and replaced with 10% AlamarBlue® (Thermo Fisher Scientific, Reinach, CH) in DMEM supplemented with 10% FCS. Cells were incubated for 4-24 h at 37° C. in a humidified atmosphere in 5% carbon dioxide. Then, plates were measured on a Tecan Infinite M1000 Pro plate reader at λex=560 nm and λem=590 nm and value normalized to the one of untreated cells."}, "[1]": {"system": "HT-1080, PC-3, MCF-7, SH-SY5Y and Caco-2 cell lines", "assay": "siRNA transfection, GAPDH knock-down in five additional cell lines", "type": "cell-based", "details": "including SH-SY5Y and Caco-2", "procedure": "siRNA Transfection and Protein Quantitation: HeLa, CHO, PC3, SH-SY5Y, Caco-2 and MCF-7 cells were seeded in TPP 96-well plates (Faust Laborbedarf AG, Schaffhausen) at 5×10^3 cells per well the day before transfection. The 96-well plates were coated with poly-L-Lysine (Sigma aldrich, Buchs, CH) for 1 h and dried under a flow of air in the fumehood at RT before plating HEK-293 and HT-1080 at 5×10^3 cells per well the day before transfection. Cells were always used in their exponential phase for transfection and with a number of passages between 3 to 20. The siRNA transfection complexes were formed in OptiMEM by mixing siRNA (1-20 μmol, 0.02-0.4 μL from a 50 μM Milli-Q water solution in 6.25 μL OptiMEM) with peptide dendrimers (N/P ratio of 1-100, 21-420 μmol, 0.1-3.5 μl from a 1 mg/mL Milli-Q water solution in 6.25 μL OptiMEM) or L2000 (w/w ratio of 0.5:1-2:1, 0.0665-0.266 μg, 0.0665-0.266 μL from the 1 mg/mL commercial solution in 6.25 μL OptiMEM) at room temperature for 30 minutes (12.5 μL, concentration of 80-1600 nM siRNA and 1.68-33.6 μM i.e. 12-240 μg/mL peptide dendrimers or 5.32-21.28 μg/mL L2000). […] Briefly, medium was removed, cells were lysed with 200 μL cold lysis buffer, 2-10 μL of lysis buffer from each well was taken to a new 96 well plate containing 90 μL Master Mix and fluorescence measured at λex=560 nm and λem=590 nm on a Tecan Infinite M1000 Pro plate reader."}, "siRNA": {"system": "siRNA", "assay": "Free siRNA assay by Quant-iT microRNA", "type": "binding", "procedure": "Free siRNA assay by Quant-iT™ microRNA: The complexes were formed in OptiMEM by mixing siRNA (10 μmol, 0.2 μL from a 50 μM Milli-Q water solution in 6.25 μL OptiMEM pH 5 or pH 7.4) with peptide dendrimers (N/P ratio of 1-10, 42-420 μmol, 0.15-1.5 μL from a 1 mg/mL Milli-Q water solution in 6.25 μL OptiMEM pH 5 or pH 7.4) or L2000 (w/w ratio of 0.2:1-8:1, 0.0266-1.064 μL from the 1 mg/mL commercial solution in 6.25 μL OptiMEM pH 7.4) for 30 min at room temperature (12.5 μL, concentration of 800 nM siRNA and 1.68-16.8 μM i.e. 12-120 μg/mL peptide dendrimers or 0.133-5.32 μg/mL L2000). Then, the Quant-iT™ microRNA Assay Kit (Thermo Fisher Scientific, Reinach, CH) was used following the manufacturer's protocol. Briefly, 1 μl of reagent was diluted in 200 μl of buffer (pH 5 by acidification by 10 mM acetate buffer or standard pH 7.4) and 195 μL added to the well of a TPP 96-well plate. Then, 5 μl of the complexes were added to the wells (200 μL, final concentration of 20 nM siRNA and 42-420 nM i.e. 0.3-3 μg/mL peptide dendrimers or 0.0532-2.128 μg/mL L2000) and fluorescence measured at λex=500 nm and λem=525 nm after 10 min on a Tecan Infinite M1000 Pro plate reader. The Quant-iT™ microRNA signal from the complexes were normalized against a «siRNA only» control to yield the percentage of the signal detected."}}, "data": [{"substance": "(kl)8(kkl)4(kll)2kllll [DMH18]", "values": [{"measurement": "cell toxicity / cell viability", "setting": "cells", "value": "without significant toxicity to cells"}, {"measurement": "GADPH knock-down in five additional cell lines", "setting": "[1]", "value": "effectively transfected all five cell lines"}]}, {"substance": "(RL)8(KRL)4(KLL)2KLLLL [MH44]", "values": [{"measurement": "unbound siRNA", "setting": "siRNA", "value": "1.6±0.3", "unit": "%"}]}, {"substance": "(KL)8(KKL)4(KKL)2KLLLL [MH46]", "values": [{"measurement": "siRNA binding (in words)", "setting": "siRNA", "value": "weakly bound siRNA"}]}, {"substance": "(kl)8(kkl)4(kll)2kk(C16)k(C16) [DMH13]", "values": [{"measurement": "cell toxicity / cell viability", "setting": "cells", "value": "without significant toxicity to cells"}, {"measurement": "GADPH knock-down in five additional cell lines", "setting": "[1]", "value": "effectively transfected all five cell lines"}]}]}
